In ChEMBL document CHEMBL3217590, “Discovery of a new class of dithiocarbamates and rhodanine scaffolds as potent antifungal agents: synthesis, biology and molecular docking” (Medchemcomm, 2012):
Values after ≈ are worked out from the molar mass of the structure shown.

Columns and labels:
Candida albicans [1] = assay: Antifungal activity against Candida albicans after 24 to 48 hrs by broth microdilution technique; assay type: functional
Candida parapsilosis = assay: Antifungal activity against Candida parapsilosis ATCC22019 after 24 to 48 hrs by broth microdilution technique; assay type: functional; conditions: Lodderomyces parapsilosis
Sporothrix schenckii [2] = assay: Antifungal activity against Sporothrix schenckii after 72 to 96 hrs by broth microdilution technique; assay type: functional
[3] = tested on: Trichophyton mentagrophytes; assay: Antifungal activity against Trichophyton mentagrophytes after 72 to 96 hrs by broth microdilution technique; assay type: functional
Aspergillus fumigatus = assay: Antifungal activity against Aspergillus fumigatus after 72 to 96 hrs by broth microdilution technique; assay type: functional
Cryptococcus neoformans = assay: Antifungal activity against Cryptococcus neoformans after 24 to 48 hrs by broth microdilution technique; assay type: functional
Candida albicans [4] = assay: Anticandidal activity against Candida albicans ATCC10231 after 24 to 48 hrs by broth microdilution technique; assay type: functional
Candida albicans [5] = assay: Anticandidal activity against Candida albicans ATCC14053 after 24 to 48 hrs by broth microdilution technique; assay type: functional
Candida albicans [6] = assay: Anticandidal activity against Candida albicans CDRI after 24 to 48 hrs by broth microdilution technique; assay type: functional
Candida albicans [7] = assay: Anticandidal activity against Candida albicans isolated from patient after 24 to 48 hrs by broth microdilution technique; assay type: functional
Candida albicans [8] = assay: Anticandidal activity against Candida albicans MTCC183 after 24 to 48 hrs by broth microdilution technique; assay type: functional
Candida albicans [9] = assay: Anticandidal activity against Candida albicans ATCC750 after 24 to 48 hrs by broth microdilution technique; assay type: functional
Candida albicans [10] = assay: Anticandidal activity against Candida albicans ATCC-MYA 2950 after 24 to 48 hrs by broth microdilution technique; assay type: functional
Candida albicans [11] = assay: Anticandidal activity against amphotericin-B resistant Candida albicans after 24 to 48 hrs by broth microdilution technique; assay type: functional
Candida albicans [12] = assay: Ratio of fluconazole MIC to compound MIC against amphotericin-B resistant Candida albicans after 24 to 48 hrs by broth microdilution technique; assay type: functional
L929 [13] = assay: Cytotoxicity against mouse L929 cells assessed as morphological changes up to 3.12 ug/ml after 24 hrs by giemsa staining based phase contrast microscopy; assay type: cell-based; conditions: l929, 24 h
L929 [14] = assay: Cytotoxicity against mouse L929 cells assessed as decline in cell survival at 12.5 to 50 ug/ml after 24 hrs by spectrophotometric analysis; assay type: cell-based; conditions: l929, 24 h
Sporothrix schenckii [15] = assay: Ratio of fluconazole MIC to compound MIC against Sporothrix schenckii after 72 to 96 hrs by broth microdilution technique; assay type: functional
Sporothrix schenckii [16] = assay: Ratio of clotrimazole MIC to compound MIC against Sporothrix schenckii after 72 to 96 hrs by broth microdilution technique; assay type: functional

| SMILES | MIC (Candida albicans [1]) | MIC (Candida parapsilosis) | MIC (Sporothrix schenckii [2]) | MIC [3] | MIC (Aspergillus fumigatus) | MIC (Cryptococcus neoformans) | MIC (Candida albicans [4]) | MIC (Candida albicans [5]) | MIC (Candida albicans [6]) | MIC (Candida albicans [7]) | MIC (Candida albicans [8]) | MIC (Candida albicans [9]) | MIC (Candida albicans [10]) | MIC (Candida albicans [11]) | Ratio (Candida albicans [12]) | Activity (L929 [13]) | Activity (L929 [14]) | Ratio (Sporothrix schenckii [15]) | Ratio (Sporothrix schenckii [16]) |
| --- | --- | --- | --- | --- | --- | --- | --- | --- | --- | --- | --- | --- | --- | --- | --- | --- | --- | --- | --- |
| COc1cc(/C=C2\SC(=S)N(Cc3ccncc3)C2=O)cc(OC)c1OC | 12.5 µg/mL (≈ 31.1 µM) | 50 µg/mL (≈ 124 µM) | 25 µg/mL (≈ 62.1 µM) | 50 µg/mL (≈ 124 µM) | > 50 µg/mL | 50 µg/mL (≈ 124 µM) | – | – | – | – | – | – | – | – | – | – | – | – | – |
| CCSC(=S)NCc1ccncc1 | 3.12 µg/mL (≈ 14.7 µM) | 3.12 µg/mL (≈ 14.7 µM) | 1.56 µg/mL (≈ 7.35 µM) | 3.12 µg/mL (≈ 14.7 µM) | 50 µg/mL (≈ 235 µM) | 3.12 µg/mL (≈ 14.7 µM) | 6.25 µg/mL (≈ 29.4 µM) | 3.12 µg/mL (≈ 14.7 µM) | 6.25 µg/mL (≈ 29.4 µM) | 12.5 µg/mL (≈ 58.9 µM) | 1.56 µg/mL (≈ 7.35 µM) | 12.5 µg/mL (≈ 58.9 µM) | 12.5 µg/mL (≈ 58.9 µM) | 1.56 µg/mL (≈ 7.35 µM) | 5 | Non-toxic | Toxic | – | – |
| CCCCSC(=S)NCc1ccncc1 | 3.12 µg/mL (≈ 13 µM) | 6.25 µg/mL (≈ 26 µM) | 3.12 µg/mL (≈ 13 µM) | 3.12 µg/mL (≈ 13 µM) | 50 µg/mL (≈ 208 µM) | 3.12 µg/mL (≈ 13 µM) | 6.25 µg/mL (≈ 26 µM) | 3.12 µg/mL (≈ 13 µM) | 12.5 µg/mL (≈ 52 µM) | 12.5 µg/mL (≈ 52 µM) | 1.56 µg/mL (≈ 6.49 µM) | 12.5 µg/mL (≈ 52 µM) | 12.5 µg/mL (≈ 52 µM) | 1.56 µg/mL (≈ 6.49 µM) | 5 | Non-toxic | Toxic | – | – |
| S=C(NCc1ccncc1)SCc1ccccc1 | 1.56 µg/mL (≈ 5.68 µM) | 1.56 µg/mL (≈ 5.68 µM) | 6.25 µg/mL (≈ 22.8 µM) | 6.25 µg/mL (≈ 22.8 µM) | 25 µg/mL (≈ 91.1 µM) | 1.56 µg/mL (≈ 5.68 µM) | 1.56 µg/mL (≈ 5.68 µM) | 0.78 µg/mL (≈ 2.84 µM) | 1.56 µg/mL (≈ 5.68 µM) | 1.56 µg/mL (≈ 5.68 µM) | 0.39 µg/mL (≈ 1.42 µM) | 3.12 µg/mL (≈ 11.4 µM) | 1.56 µg/mL (≈ 5.68 µM) | 12.5 µg/mL (≈ 45.6 µM) | – | Non-toxic | Toxic | – | – |
| FC(F)(F)c1ccc(CSC(=S)NCc2ccncc2)cc1 | 1.56 µg/mL (≈ 4.56 µM) | 1.56 µg/mL (≈ 4.56 µM) | 6.25 µg/mL (≈ 18.3 µM) | 6.25 µg/mL (≈ 18.3 µM) | 50 µg/mL (≈ 146 µM) | 1.56 µg/mL (≈ 4.56 µM) | – | – | 1.56 µg/mL (≈ 4.56 µM) | 3.12 µg/mL (≈ 9.11 µM) | 0.78 µg/mL (≈ 2.28 µM) | 3.12 µg/mL (≈ 9.11 µM) | 1.56 µg/mL (≈ 4.56 µM) | 12.5 µg/mL (≈ 36.5 µM) | – | Non-toxic | Toxic | – | – |
| O=C1CSC(=S)N1Cc1ccncc1 | 1.56 µg/mL (≈ 6.95 µM) | 6.25 µg/mL (≈ 27.9 µM) | 1.56 µg/mL (≈ 6.95 µM) | 3.12 µg/mL (≈ 13.9 µM) | 12.5 µg/mL (≈ 55.7 µM) | 6.25 µg/mL (≈ 27.9 µM) | 6.25 µg/mL (≈ 27.9 µM) | 1.56 µg/mL (≈ 6.95 µM) | 6.25 µg/mL (≈ 27.9 µM) | 6.25 µg/mL (≈ 27.9 µM) | 0.78 µg/mL (≈ 3.48 µM) | 6.25 µg/mL (≈ 27.9 µM) | 6.25 µg/mL (≈ 27.9 µM) | 3.12 µg/mL (≈ 13.9 µM) | 2 | Non-toxic | Toxic | – | – |
| O=C1/C(=C/c2ccccc2)SC(=S)N1Cc1ccncc1 | 25 µg/mL (≈ 80 µM) | 50 µg/mL (≈ 160 µM) | 25 µg/mL (≈ 80 µM) | 50 µg/mL (≈ 160 µM) | > 50 µg/mL | 50 µg/mL (≈ 160 µM) | – | – | – | – | – | – | – | – | – | – | – | – | – |
| O=C1/C(=C/c2ccc(F)cc2)SC(=S)N1Cc1ccncc1 | 12.5 µg/mL (≈ 37.8 µM) | 25 µg/mL (≈ 75.7 µM) | 0.39 µg/mL (≈ 1.18 µM) | 3.12 µg/mL (≈ 9.44 µM) | > 50 µg/mL | 25 µg/mL (≈ 75.7 µM) | – | – | – | – | – | – | – | – | – | Non-toxic | Toxic | 12 | 12 |
| O=C1/C(=C/c2ccccc2F)SC(=S)N1Cc1ccncc1 | 12.5 µg/mL (≈ 37.8 µM) | 50 µg/mL (≈ 151 µM) | 1.56 µg/mL (≈ 4.72 µM) | 6.25 µg/mL (≈ 18.9 µM) | > 50 µg/mL | 3.12 µg/mL (≈ 9.44 µM) | – | – | – | – | – | – | – | – | – | – | – | – | – |
| O=C1/C(=C/c2ccc(Cl)cc2)SC(=S)N1Cc1ccncc1 | 50 µg/mL (≈ 144 µM) | > 50 µg/mL | > 50 µg/mL | > 50 µg/mL | > 50 µg/mL | > 50 µg/mL | – | – | – | – | – | – | – | – | – | – | – | – | – |
| O=C1/C(=C/c2ccccc2[N+](=O)[O-])SC(=S)N1Cc1ccncc1 | 3.12 µg/mL (≈ 8.73 µM) | 3.12 µg/mL (≈ 8.73 µM) | 6.25 µg/mL (≈ 17.5 µM) | 6.25 µg/mL (≈ 17.5 µM) | > 50 µg/mL | 6.25 µg/mL (≈ 17.5 µM) | – | – | 50 µg/mL (≈ 140 µM) | 25 µg/mL (≈ 69.9 µM) | 12.5 µg/mL (≈ 35 µM) | 50 µg/mL (≈ 140 µM) | 50 µg/mL (≈ 140 µM) | 3.12 µg/mL (≈ 8.73 µM) | 2 | – | – | – | – |
| O=C1/C(=C/c2ccc([N+](=O)[O-])cc2)SC(=S)N1Cc1ccncc1 | 50 µg/mL (≈ 140 µM) | > 50 µg/mL | 25 µg/mL (≈ 69.9 µM) | > 50 µg/mL | > 50 µg/mL | > 50 µg/mL | – | – | – | – | – | – | – | – | – | – | – | – | – |
| CCc1ccc(/C=C2\SC(=S)N(Cc3ccncc3)C2=O)cc1 | > 50 µg/mL | > 50 µg/mL | > 50 µg/mL | > 50 µg/mL | > 50 µg/mL | > 50 µg/mL | – | – | – | – | – | – | – | – | – | – | – | – | – |
